Measured values published in paper PMC5994915 (Bioorganic & medicinal chemistry, 2017).

Key:
[1] = tested on: class I HDACs in HEL cells; conditions: Boc-Lys (acetyl)-AMC substrate, n ≥ 2
[2] = tested on: class IIa HDACs in HEL cells; conditions: Boc-Lys (triflouroacetyl)-AMC substrate, n ≥ 2

Row | SMILES | HDAC class I cellular IC50 [1] | HDAC class IIa cellular IC50 [2]
1 | Nc1ccccc1NC(=O)c1ccc(NC(=O)CN2C(=O)C3(OCCCO3)c3cc(Br)ccc32)cc1 [9a, N-(2-aminophenyl)-4-(2-(5-bromo-2-oxospiro[indoline-3,2′-[1,3]dioxan]-1-yl)acetamido)ben-zamide] | not active | not active
2 | Nc1ccc(-c2cccs2)cc1NC(=O)c1ccc(CNC(=O)CN2C(=O)C3(OCCCO3)c3cc(Cl)ccc32)cc1 [23a, N-(2-Amino-5-(thiophen-2-yl)phenyl)-4-((2-(5-chloro-2-oxospiro[indoline-3,2′-[1,3]dioxan]-1-yl)acetamido)methyl)benza-mide] | not active | not active
